Several values for one entry are separate records, joined by “and”; a condition that tells them apart may be missing. Identical values can stand only once.
Columns and labels:
[1] = system: 3C protease (EV assay); assay: Assay optimization - solvent (EV assay, Camb 2); assay type: biochemical, Enterovirus; details: for effect on reaction rate: all concentrations tested
Method: Various solvents were tested in order to optimize substrate solubility and stability. […] All the solvents tested were prepared at 0-10% concentrations in 2× reaction buffer and the final concentrations tested were 0-5%. […] Camb 2 was added to the final 2× buffer. For 1,2-Propanediol and 1,3-Propanediol, Camb 2 was first dissolved in the solvent at the appropriate concentration. The solvent+camb2 was then added to 3× reaction buffer to make a final 2× reaction buffer+2 uM camb2. All the experiments were performed in the TECAN Polarstar n=1 in triplicates.

[2] = target: T1, Recombinant protease from enterovirus strain Echo (Echovirus 30, UniProt Q9WN78); assay: Enterovirus assay optimization with recombinant Echo protease (plates, tubes, buffer, Na2SO4, substrate concentration, diluent); assay type: biochemical; details: for Positive control, Average / Positive control: substrate stock diluted 1:8 in this diluent, 0.25 uM final, analysis 5-10 min; for Positive control: single repetition
T1 construct: Phosphoramidon was tested using the Echovirus 3C recombinant
T1 sequence (Q9WN78 1550-1732): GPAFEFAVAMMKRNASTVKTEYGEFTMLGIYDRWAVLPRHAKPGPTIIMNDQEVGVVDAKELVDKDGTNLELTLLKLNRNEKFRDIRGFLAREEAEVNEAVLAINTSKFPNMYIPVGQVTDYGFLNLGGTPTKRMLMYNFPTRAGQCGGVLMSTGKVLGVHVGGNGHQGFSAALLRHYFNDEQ
Method: • Inhibitor Cocktail: Inhibitors cocktail I10 • Enzyme dilution buffer: −25 mM HEPES pH 7.5, 150 mM NaCl, 1 mM EDTA, 10% Glycerol, 0.5 mg/ml BSA, 1M Sucrose, 0.1% Sodium azid. • 2× reaction buffer, Buffer B: 50 mM HEPES, 10 mM EDTA, 10 mM EGTA, 1.2M Na2SO4, sodium azide 0.1%, pH 8.5 • Artificial CSF: NaCl 125 mM, KCl 2.5 mM, MgCl 1 mM, NaH2PO4 1.25 mM, CaCl2 2 mM, Glucose 2.5 mM, NaHCO3 25 mM, 0.1% Sodium azide, HEPES 25 mM, pH 7.45. • Enzyme: Recombinant protease from enterovirus strain “Echo” [dilution 1:18 • Substrate: Camb-2.3, 1 mM, Camb-2.4, 2 mM. (Different batches for the same Camb2 sequence) • HEPES Buffer: HEPES 25 mM • NB tubes: Sigma Cat #Z666505 • Amber tubes: USA scientific Inc. Cat. 1620-2707 • 96 well Plate: Dark bottom NB plate—Greiner Cat. 655900
• 1. Add artiCSF±HEPES buffer to plate • 2. Prepare 400 ul HEPES buffer±RB+substrate (camb2.3 and 2.4) in both amber and NB tubes. • 3. Add enzyme to wells • 4. Add HEPES buffer±RB+substrate to wells with multichannel pipette.
The reaction buffer is a part of the enterovirus test kit of the invention. The camb-2 substrate is dissolved in the reaction buffer. The reaction buffer contains different salts to allow the tested enzyme to work at the optimal conditions. The current reaction buffer composition is: HEPES pH 7.5, 300 mM NaCl, 10 mM EDTA, 10 mM EGTA, 10% Glycerol, 1.8M Na2SO4, 0.1% Sodium azide. The amount of salt in the reaction buffer is high and allows optimal enzymatic activity. However, under these conditions, substrate solubility is affected. Thus, the reaction buffer was improved to increase substrate solubility without reducing enzymatic activity of the tested 3C protease.
300 mM NaCl and 10% glycerol was removed from the reaction buffer and several reduced concentrations of Na2SO4 (starting at 0.9M) were tested in order to determine the minimal salt requirements of the assay (Tables 31-34). Experiments were repeated at least three times by two different scientists.
CSF sample was incubated with 50 nM Echo protease and 2× reaction buffer with 0.6M Na2SO4. Also included were 3 blanks and 9 positive control repetitions.
The effect of reduction in substrate (camb2) concentration and increase in measurement time was tested. The experiment was performed at a final substrate (camb2.5) concentrations of 1, 0.5, 0.25 and 0.125 μM and data analysis was made at different time intervals: 1.5-5, 5-12 and 5-22 min (FIGS. 27A-C).
Sodium sulfate generally has an ambivalent effect: it increase 3C protease activity and reduces substrate solubility. Once it was decided that the substrate concentration would be reduced to 0.25 uM and results analyzed at between 5-10 min, the Na2SO4 concentration was optimized. […] 0.6-0.4M Na2SO4 was tested under the new assay conditions.
• Data analysis was performed between 5-10 min. • The assay activity was measured in triplicates by three scientists. The results in Table 51 are the average of the three triplicates.
To examine the effect of substrate dilution in DMSO vs. DDW under the new assay conditions, substrate stock (1 mM in DMSO) was diluted 1:8 in DMSO or in DDW to yield the working stock. The working stocks were further diluted 1:250 in 2× RB for a concentration of 0.5 uM (0.25 uM final in the well).
The assay activity was measured in triplicates by three scientists. The results in Table 52 are the average of the three triplicates.

[3] = target: T2, COX enzyme (Coxsackievirus B5, UniProt Q03053); assay: Assay optimization - solvent with COX enzyme (1:10); assay type: biochemical, Enterovirus (COX)
T2 construct: 3D structure modeling of enterovirus 3C protease with it substrate Camb2
T2 sequence (Q03053 1541-1723): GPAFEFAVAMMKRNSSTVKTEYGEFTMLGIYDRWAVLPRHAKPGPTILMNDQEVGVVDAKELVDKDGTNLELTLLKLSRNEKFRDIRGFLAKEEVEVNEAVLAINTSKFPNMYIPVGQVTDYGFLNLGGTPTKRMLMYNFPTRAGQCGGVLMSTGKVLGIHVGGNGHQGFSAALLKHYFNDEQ
Method: Various solvents were tested in order to optimize substrate solubility and stability. […] All the solvents tested were prepared at 0-10% concentrations in 2× reaction buffer and the final concentrations tested were 0-5%. […] Camb 2 was added to the final 2× buffer. For 1,2-Propanediol and 1,3-Propanediol, Camb 2 was first dissolved in the solvent at the appropriate concentration. The solvent+camb2 was then added to 3× reaction buffer to make a final 2× reaction buffer+2 uM camb2. […]
1,3-Propanediol with COX enzyme (1:10):

[4] = 1,2-propanediol 1% final, Table 50 Galaxy FLUOstar with nonbinding microplate
[5] = 1,2-propanediol 2.5% final, Table 49 TECAN with nonbinding microplate
[6] = 1,2-propanediol 2.5% final, Table 50 Galaxy FLUOstar with nonbinding microplate
[7] = 1,2-propanediol 4% final, Table 49 TECAN with nonbinding microplate
[8] = 1,2-propanediol 4% final, Table 50 Galaxy FLUOstar with nonbinding microplate
[9] = 1,2-propanediol 5% final, Table 49 TECAN with nonbinding microplate
[10] = 1,2-propanediol 5% final, Table 50 Galaxy FLUOstar with nonbinding microplate
[11] = 1,3-propanediol 1% final, Table 47 GalaxyFLUOstar, second sub-table
[12] = 1,3-propanediol 2.5% final, Table 47 GalaxyFLUOstar, second sub-table
[13] = 1,3-propanediol 2.5% final, Table 48 TECAN with nonbiding plate
[14] = 1,3-propanediol 4% final, Table 47 GalaxyFLUOstar, second sub-table
[15] = 1,3-propanediol 4% final, Table 48 TECAN with nonbiding plate
[16] = 1,3-propanediol 5% final, Table 47 GalaxyFLUOstar, first sub-table
[17] = 1,3-propanediol 5% final, Table 47 GalaxyFLUOstar, second sub-table
[18] = 1,3-propanediol 5% final, Table 48 TECAN with nonbiding plate
[19] = Acetonitrile 0.5% final, Table 43 Experiment 2
[20] = Acetonitrile 1% final, Table 42 Experiment 1
[21] = Acetonitrile 1% final, Table 43 Experiment 2
[22] = Acetonitrile 2.5% final, Table 42 Experiment 1
[23] = Acetonitrile 4% final, Table 42 Experiment 1
[24] = Acetonitrile 5% final, Table 42 Experiment 1
[25] = Isopropanol 1% final, Table 39 Experiment 1
[26] = Isopropanol 1% final, Table 40 Experiment 2
[27] = Isopropanol 2.5% final, Table 39 Experiment 1
[28] = Isopropanol 2.5% final, Table 40 Experiment 2
[29] = Isopropanol 4% final, Table 39 Experiment 1
[30] = Isopropanol 4% final, Table 40 Experiment 2
[31] = Isopropanol 5% final, Table 39 Experiment 1
[32] = Isopropanol 5% final, Table 40 Experiment 2

SMILES: C[S+](C)[O-] [DMSO]
- Reaction rate Average P.C ([1]; DMSO 1% final, Table 41): 1270 RFU/min
- % Loss ([1]; DMSO 2.5% final, Table 41): 7%
- Reaction rate Average P.C ([1]; DMSO 2.5% final, Table 41): 1139.26 RFU/min
- Reaction rate Average P.C ([1]; DMSO 4% final, Table 41): 1288 RFU/min
- effect on reaction rate [1]: no loss in reaction rate
- Positive control, Average [2]: 1005 RFU/min
- Positive control [2]: 1023 ± 36 RFU/min and 987 ± 126 RFU/min

SMILES: CC(O)CO (stereo not drawn) [1,2-propanediol, 1,2-Propanediol]
- Reaction rate Average P.C ([3]; 1,2-propanediol 1% final, Table 49 TECAN with nonbinding microplate): 8588.13 RFU/min
- % Loss [3, 4]: 9%
- Reaction rate Average P.C [3, 4]: 5689.6 RFU/min
- % Loss [3, 5]: 20%
- Reaction rate Average P.C [3, 5]: 6521.1 RFU/min
- % Loss [3, 6]: 22%
- Reaction rate Average P.C [3, 6]: 4838.97 RFU/min
- % Loss [3, 7]: 30%
- Reaction rate Average P.C [3, 7]: 5013.13 RFU/min
- % Loss [3, 8]: 30%
- Reaction rate Average P.C [3, 8]: 4291.04 RFU/min
- % Loss [3, 9]: 44%
- Reaction rate Average P.C [3, 9]: 4509 RFU/min
- % Loss [3, 10]: 47%
- Reaction rate Average P.C [3, 10]: 3278.19 RFU/min
- effect on enzymatic activity ([3]; all concentrations tested except 1%): inhibited enzymatic activity

SMILES: O [DDW]
- reaction rate lower compared to DMSO ([2]; substrate diluted with DDW): 25%
- Positive control, Average [2]: 789.5 RFU/min
- Positive control [2]: 747 ± 68 RFU/min and 832 ± 64 RFU/min

SMILES: OCCCO [1,3-propanediol, 1,3-Propanediol]
- Reaction rate Average P.C ([3]; 1,3-propanediol 1% final, Table 47 GalaxyFLUOstar, first sub-table): 3948.19 RFU/min
- % Loss [3, 11]: 20%
- Reaction rate Average P.C [3, 11]: 4125.89 RFU/min
- Reaction rate Average P.C ([3]; 1,3-propanediol 1% final, Table 48 TECAN with nonbiding plate): 7620.53 RFU/min
- % Loss [3, 12]: 11%
- Reaction rate Average P.C [3, 12]: 4491.13 RFU/min
- % Loss [3, 13]: 36%
- Reaction rate Average P.C [3, 13]: 4681.05 RFU/min
- % Loss [3, 14]: 42%
- Reaction rate Average P.C [3, 14]: 2956.26 RFU/min
- % Loss [3, 15]: 2%
- Reaction rate Average P.C [3, 15]: 7238.7 RFU/min
- % Loss [3, 16]: 10%
- Reaction rate Average P.C [3, 16]: 3072.45 RFU/min
- % Loss [3, 17]: 47%
- Reaction rate Average P.C [3, 17]: 2389.47 RFU/min
- % Loss [3, 18]: 20%
- Reaction rate Average P.C [3, 18]: 5929.86 RFU/min

SMILES: CC#N [Acetonitrile]
- % Loss [1, 19]: 7%
- Reaction rate Average P.C [1, 19]: 1257.5 RFU/min
- % Loss [1, 20]: 43%
- Reaction rate Average P.C [1, 20]: 1106.6 RFU/min
- % Loss [1, 21]: 25%
- Reaction rate Average P.C [1, 21]: 1002.48 RFU/min
- % Loss [1, 22]: 57%
- Reaction rate Average P.C [1, 22]: 846.73 RFU/min
- % Loss [1, 23]: 65%
- Reaction rate Average P.C [1, 23]: 706.1 RFU/min
- % Loss [1, 24]: 84%
- Reaction rate Average P.C [1, 24]: 308.48 RFU/min
- effect on reaction rate [1]: loss in reaction rate

SMILES: CC(C)O [Isopropanol]
- salt precipitation in reaction buffer ([1]; 4 and 5% final): salt precipitation formed
- % Loss [1, 25]: 45%
- Reaction rate Average P.C [1, 25]: 641.57 RFU/min
- % Loss [1, 26]: 35%
- Reaction rate Average P.C [1, 26]: 1047.42 RFU/min
- % Loss [1, 27]: 3%
- Reaction rate Average P.C [1, 27]: 1143.93 RFU/min
- % Loss [1, 28]: 50%
- Reaction rate Average P.C [1, 28]: 806 RFU/min
- % Loss [1, 29]: 100%
- Reaction rate Average P.C [1, 29]: −2.7 RFU/min
- % Loss [1, 30]: 42%
- Reaction rate Average P.C [1, 30]: 676.0 RFU/min
- % Loss [1, 31]: 100%
- Reaction rate Average P.C [1, 31]: −4.19 RFU/min
- % Loss [1, 32]: 75%
- Reaction rate Average P.C [1, 32]: 394.82 RFU/min
- effect on reaction rate [1]: loss in reaction rate
